A word on the AC50: it is the midpoint of the concentration-response curve, whichever way the signal moves. The low end stands for activity at low concentration, the high end for activity only at high concentration.

The values below come from patent US20230104936A1, “TRPML MODULATORS” (Casma Therapeutics, Inc., priority 2019, published 2023).

The test system of this experiment is TFEB. As to the kind of experiment: TFEB nuclear translocation assay, HeLa wt cells. Format: cell-based. Conditions: 2 hrs compound treatment, Table 1 does not say HeLa wt or TRPML1 KO. The gist of the method:
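HeLa wt or TRPML1 KO cells treated 2 hrs with compounds at 37° C, fixed in 4% PFA, immunostained with anti-TFEB plus Alexa 488 secondary and Hoechst. Imaged at ×20, four fields/well; read-out is nuclear/perinuclear-ring TFEB intensity ratio, reported as AC50.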

The structures appear in SMILES notation.

As for `CC(c1cccc(F)c1N1CCC(CN2C3COCC2C3)CC1)S(=O)(=O)c1ccc(S(=O)(=O)N(C)C)cc1` (stereo not shown) [Compound A-870, 4-((1-(2-(4-((3-oxa-6-azabicyclo[3.1.1]heptan-6-yl)methyl)piperidin-1-yl)-3-fluorophenyl)ethyl)sulfonyl)-N,N-dimethylbenzenesulfonamideformate], the AC50 is at least 10000 nM.

Compound `COCCC1CCN(c2ccccc2NS(=O)(=O)c2ccc(S(=O)(=O)N(C)C)cc2)CC1` [Compound A-611, N4-{2-[4-(2-methoxyethyl)piperidin-1-yl]phenyl}-N1,N1-dimethylbenzene-1,4-disulfonamide] displayed a half-maximal activity concentration (AC50) (Homo sapiens, HeLa, 2 h) of at most 2000 nM.

`CN(C)S(=O)(=O)c1ccc(S(=O)(=O)Nc2cccc(F)c2N2CCC(CN3CC4C(C3)C4(F)F)CC2)cc1` (stereo not shown) [Compound A-883, N4-{2-[4-({6,6-difluoro-3-azabicyclo[3.1.0]hexan-3-yl}methyl)piperidin-1-yl]-3-fluorophenyl}-N1,N1-dimethylbenzene-1,4-disulfonamide] had an AC50 (Homo sapiens, HeLa, 2 h) of at most 2000 nM.

The compound `COc1ccc(S(=O)(=O)Nc2ccccc2N2CCC3(CC2)CN(C)c2cc(F)ccc23)cc1` [Compound A-252, N-(2-{6-fluoro-1-methyl-1,2-dihydrospiro[indole-3,4′-piperidin]-1′-yl}phenyl)-4-methoxybenzene-1-sulfonamide] had an AC50 (Homo sapiens, HeLa, 2 h) of at most 2000 nM.

As for `CN1CCc2ccccc2C12CCN(c1ccccc1NS(=O)(=O)c1ccc(S(C)(=O)=O)cc1)CC2` [Compound A-441, N-(2-(2-methyl-3,4-dihydro-2H-spiro[isoquinoline-1,4′-piperidin]-1′-yl)phenyl)-4-(methylsulfonyl)benzenesulfonamide], the concentration at half-maximal activity (AC50) (Homo sapiens, HeLa, 2 h) was in the range of 2010 to 8000 nM.

`O=S(=O)(Nc1ccccc1N1CCC(c2ccc(Cl)cc2F)CC1)c1cccc(F)c1F` [Compound A-97, N-{2-[4-(4-chloro-2-fluorophenyl)piperidin-1-yl]phenyl}-2,3-difluorobenzene-1-sulfonamide]: the AC50 (Homo sapiens, HeLa, 2 h) is at least 10000 nM.

As for `CN(C)S(=O)(=O)c1ccc(S(=O)(=O)Nc2ccccc2N2CCC(F)(CCO)CC2)cc1` [Compound A-722, N4-{2-[4-fluoro-4-(2-hydroxyethyl)piperidin-1-yl]phenyl}-N1,N1-dimethylbenzene-1,4-disulfonamide], the AC50 (Homo sapiens, HeLa, 2 h) is at least 10000 nM.

Compound `CC(c1cccc(F)c1N1CCC(COC(C)(C)C)CC1)S(=O)(=O)c1ccc(S(=N)(=O)N(C)C)cc1` (single isomer, unassigned) [Compound A-961, 4-((1-(2-(4-(tert-butoxymethyl)piperidin-1-yl)-3-fluorophenyl)ethyl)sulfonyl)-N,N-dimethylbenzenesulfonimidamide] gave an AC50 of at least 10000 nM.

Where the note is “Homo sapiens, HeLa, 2 h”, `CC(c1cccc(F)c1N1CCC(CN2C[C@@H](C)O[C@@H](C)C2)CC1)S(=O)(=O)c1ccc(S(=O)(=O)N(C)C)cc1` (stereo partly drawn) [Compound A-750, 4-{1-[2-(4-{[(2R,6S)-2,6-dimethylmorpholin-4-yl]methyl}piperidin-1-yl)-3-fluorophenyl]ethanesulfonyl}-N,N-dimethylbenzene-1-sulfonamide] showed an AC50 of at most 2000 nM.

For the compound `O=S(=O)(Nc1cccc(Cl)c1N1CCCCC1)c1ccc(C2(C(F)(F)F)N=N2)cc1` [Compound A-749, N-[3-chloro-2-(piperidin-1-yl)phenyl]-4-[3-(trifluoromethyl)-3H-diazirin-3-yl]benzene-1-sulfonamide], the AC50 (Homo sapiens, HeLa, 2 h) lay within 2010 to 8000 nM.

In the case of `CN(C)S(=O)(=O)c1ccc(S(=O)(=O)Nc2ccccc2N2CCC3(CC2)OCc2cc(F)ccc23)cc1` [Compound A-258, N4-(2-{5-fluoro-3H-spiro[2-benzofuran-1,4′-piperidin]-1′-yl}phenyl)-N1,N1-dimethylbenzene-1,4-disulfonamide], for the setting “Homo sapiens, HeLa, 2 h”, the AC50 is at most 2000 nM.

Where the note is “Homo sapiens, HeLa, 2 h”, `COCC1(C)CCN(c2ccccc2NS(=O)(=O)c2ccc(C(C)(C)OC)cc2)CC1` [Compound A-655, N-{2-[4-(methoxymethyl)-4-methylpiperidin-1-yl]phenyl}-4-(2-methoxypropan-2-yl)benzene-1-sulfonamide] returned an AC50 of 2010 to 8000 nM.

Turning to `CC(c1cccc(F)c1N1CCC(CN2CCC(F)(F)C2)CC1)S(=O)(=O)c1ccc(S(=O)(=O)N(C)C)cc1` (stereo not shown) [Compound A-805, 4-((1-(2-(4-((3,3-difluoropyrrolidin-1-yl)methyl)piperidin-1-yl)-3-fluorophenyl)ethyl)sulfonyl)-N,N-dimethylbenzenesulfonamide], the AC50 is at most 2000 nM.

Under “Homo sapiens, HeLa, 2 h”, `CN(C)S(=O)(=O)c1ccc(S(=O)(=O)Nc2ccccc2N2CCN(CC3CCOCC3)CC2)cc1` [Compound A-510, N1,N1-dimethyl-N4-(2-{4-[(oxan-4-yl)methyl]piperazin-1-yl}phenyl)benzene-1,4-disulfonamide] showed an AC50 of at most 2000 nM.

In the case of `CN(C)C(=O)N1CCN(c2ccccc2NS(=O)(=O)c2ccc(S(=O)(=O)N(C)C)cc2)CC1` [Compound A-325, 4-{2-[4-(dimethylsulfamoyl)benzenesulfonamido]phenyl}-N,N-dimethylpiperazine-1-carboxamide], the AC50 (Homo sapiens, HeLa, 2 h) is at least 10000 nM.

As to `O=S(=O)(Nc1ccccc1N1CCN(c2ccc(Cl)cc2F)CC1)N1CCOCC1` [Compound A-43, N-{2-[4-(4-chloro-2-fluorophenyl)piperazin-1-yl]phenyl}morpholine-4-sulfonamide], the concentration at half-maximal activity (AC50) (Homo sapiens, HeLa, 2 h) was at most 2000 nM.

In turn, `CN(C)S(=O)(=O)c1ccc(S(=O)(=O)Nc2ccccc2N2CC3CCC2CN3c2ccc(Cl)cc2F)cc1` (stereo not shown) [Compound A-26, N4-{2-[5-(4-chloro-2-fluorophenyl)-2,5-diazabicyclo[2.2.2]octan-2-yl]phenyl}-N1,N1-dimethylbenzene-1,4-disulfonamide] returned an AC50 (Homo sapiens, HeLa, 2 h) of at most 2000 nM.

In turn, `COCC1(C)CCN(c2ccccc2NS(=O)(=O)Cc2ccccc2C#N)CC1` [Compound A-610, 1-(2-cyanophenyl)-N-{2-[4-(methoxymethyl)-4-methylpiperidin-1-yl]phenyl}methanesulfonamide] showed an AC50 (Homo sapiens, HeLa, 2 h) of 2010 to 8000 nM.

With `COCC1CCN(c2ccccc2NS(=O)(=O)c2ccc3c(c2)CC(C)(C)O3)CC1` [Compound A-614, N-{2-[4-(methoxymethyl)piperidin-1-yl]phenyl}-2,2-dimethyl-2,3-dihydro-1-benzofuran-5-sulfonamide], the AC50 (Homo sapiens, HeLa, 2 h) was at most 2000 nM.

Consider `CN(C)S(=N)(=O)c1ccc(S(=O)(=O)Nc2cc(F)ccc2N2CCC(c3c(F)cccc3F)CC2)cc1` (stereo not shown) [Compound A-228, 4-({2-[4-(2,6-difluorophenyl)piperidin-1-yl]-5-fluorophenyl}sulfamoyl)-N,N-dimethylbenzene-1-sulfonoimidamide], for which the AC50 (Homo sapiens, HeLa, 2 h) was at most 2000 nM.

Consider `COCC1(C)CCN(c2ccccc2CS(=O)(=O)c2ccc(S(=O)(=O)N(C)C)cc2)CC1` [Compound A-493, 4-({2-[4-(methoxymethyl)-4-methylpiperidin-1-yl]phenyl}methanesulfonyl)-N,N-dimethylbenzene-1-sulfonamide], for which, for the setting “Homo sapiens, HeLa, 2 h”, the AC50 was at most 2000 nM.

In turn, `COCC1(C)CCN(c2ccccc2NS(=O)(=O)Cc2cccc(F)c2)CC1` [Compound A-594, 1-(3-fluorophenyl)-N-{2-[4-(methoxymethyl)-4-methylpiperidin-1-yl]phenyl}methanesulfonamide] gave a concentration at half-maximal activity (AC50) (Homo sapiens, HeLa, 2 h) of 2010 to 8000 nM.

The compound `Cc1nn(C)c(C2CCN(c3ccc(Cl)cc3F)CC2)c1NS(=O)(=O)c1ccc(S(=O)(=O)N(C)C)cc1` [Compound A-33, N1-(5-(1-(4-chloro-2-fluorophenyl)piperidin-4-yl)-1,3-dimethyl-1H-pyrazol-4-yl)-N4,N4-dimethylbenzene-1,4-disulfonamide] displayed an AC50 (Homo sapiens, HeLa, 2 h) of at least 10000 nM.

Turning to `C[C@@H]1COC[C@@H](C)N1CC1CN(c2c(F)cccc2NS(=O)(=O)c2ccc(S(=O)(=O)N(C)C)cc2)C1` (stereo in doubt) [Compound A-915, rel-N4-[2-(3-{[(3R,5R)-3,5-dimethylmorpholin-4-yl]methyl}azetidin-1-yl)-3-fluorophenyl]-N1,N1-dimethylbenzene-1,4-disulfonamide], the concentration at half-maximal activity (AC50) (Homo sapiens, HeLa, 2 h) is at least 10000 nM.

`Cn1nccc1S(=O)(=O)Nc1ccccc1N1CCN(c2ccc(Cl)cc2F)CC1` [Compound A-15, N-{2-[4-(4-chloro-2-fluorophenyl)piperazin-1-yl]phenyl}-1-methyl-1H-pyrazole-5-sulfonamide] returned an AC50 (Homo sapiens, HeLa, 2 h) of at least 10000 nM.

`CN(C)S(=O)(=O)c1ccc(S(=O)(=O)Nc2ccccc2N2CCN(C3CC3)CC2)cc1` [Compound A-52, N4-[2-(4-cyclopropylpiperazin-1-yl)phenyl]-N1,N1-dimethylbenzene-1,4-disulfonamide] had an AC50 (Homo sapiens, HeLa, 2 h) of at most 2000 nM.

For `CN(C)S(=O)(=O)c1ccc(S(=O)(=O)Nc2ccccc2N2CCC(C3CCOCC3)CC2)cc1` [Compound A-548, N1,N1-dimethyl-N4-{2-[4-(oxan-4-yl)piperidin-1-yl]phenyl}benzene-1,4-disulfonamide], the AC50 (Homo sapiens, HeLa, 2 h) was at most 2000 nM.

For `COCS(=O)(=O)c1ccc(S(=O)(=O)Nc2ccccc2N2CCC(c3c(F)cccc3F)CC2)cc1` [Compound A-207, N-{2-[4-(2,6-difluorophenyl)piperidin-1-yl]phenyl}-4-methoxymethanesulfonylbenzene-1-sulfonamide], the AC50 (Homo sapiens, HeLa, 2 h) is at most 2000 nM.

The compound `CN1CC2(CCN(c3ccccc3NS(=O)(=O)c3ccc(S(=N)(=O)N(C)C)cc3)CC2)c2ccc(F)cc21` (stereo not shown) [Compound A-257, 4-[(2-{6-fluoro-1-methyl-1,2-dihydrospiro[indole-3,4′-piperidin]-1′-yl}phenyl)sulfamoyl]-N,N-dimethylbenzene-1-sulfonoimidamide] had an AC50 (Homo sapiens, HeLa, 2 h) of at most 2000 nM.

Under “Homo sapiens, HeLa, 2 h”, `CN(C)S(=O)(=O)c1ccc(S(=O)(=O)Nc2ccccc2N2CC(O)(c3ccc(Cl)cc3F)C2)cc1` [Compound A-162, N4-{2-[3-(4-chloro-2-fluorophenyl)-3-hydroxyazetidin-1-yl]phenyl}-N1,N1-dimethylbenzene-1,4-disulfonamide] showed an AC50 of 2010 to 8000 nM.

For the setting “Homo sapiens, HeLa, 2 h”, `Cc1ccc(S(=O)(=O)Nc2ccccc2N2CCC(c3ccc(Cl)cn3)CC2)cc1` [Compound A-103, N-{2-[4-(5-chloropyridin-2-yl)piperidin-1-yl]phenyl}-4-methylbenzene-1-sulfonamide] registered an AC50 of at most 2000 nM.
